How the values were obtained:
Format in all cases: in vivo
[1] = system: Abutilon theophrasti; assay: Pre-emergence herbicidal effect; conditions: scored visually after 3 weeks
Text: (§1) Seeds of monocotyledonous and dicotyledonous weed plants and crop plants are laid out in wood-fiber pots in sandy loam and covered with soil. The compounds of the invention, formulated in the form of wettable powders (WP) or as emulsion concentrates (EC), are then applied to the surface of the covering soil as aqueous suspension or emulsion at a water application rate equating to 600 to 800 L/ha with addition of 0.2% wetting agent.
(§2) After the treatment, the pots are placed in a greenhouse and kept under good growth conditions for the trial plants. The damage to the test plants is scored visually after a test period of 3 weeks by comparison with untreated controls (herbicidal activity in percent (%): 100% activity=the plants have died, 0% activity=like control plants).
(§3) • ABUTH: Abutilon theophrasti ALOMY: Alopecurus myosuroides • AMARE: Amaranthus retroflexus AVEFA: Avena fatua • CYPES: Cyperus esculentus ECHCG: Echinochloa crus-galli • LOLMU: Lolium multiflorum MATIN: Matricaria inodora • PHBPU: Ipomoea purpurea POLCO: Polygonum convolvulus • SETVI: Setaria viridis STEME: Stellaria media • VERPE: Veronica persica VIOTR: Viola tricolor

[2] = system: Amaranthus retroflexus; assay: Pre-emergence herbicidal effect; conditions: scored visually after 3 weeks
Text: as §1, §2, §3

[3] = system: Echinochloa crus-galli; assay: Pre-emergence herbicidal effect; conditions: scored visually after 3 weeks
Text: as §1, §2, §3

[4] = system: Matricaria inodora; assay: Pre-emergence herbicidal effect; conditions: scored visually after 3 weeks
Text: as §1, §2, §3

[5] = system: Polygonum convolvulus; assay: Pre-emergence herbicidal effect; conditions: scored visually after 3 weeks
Text: as §1, §2, §3

[6] = system: Setaria viridis; assay: Pre-emergence herbicidal effect; conditions: scored visually after 3 weeks
Text: as §1, §2, §3

[7] = system: Stellaria media; assay: Pre-emergence herbicidal effect; conditions: scored visually after 3 weeks
Text: as §1, §2, §3

[8] = system: Veronica persica; assay: Pre-emergence herbicidal effect; conditions: scored visually after 3 weeks
Text: as §1, §2, §3

[9] = system: Viola tricolor; assay: Pre-emergence herbicidal effect; conditions: scored visually after 3 weeks
Text: as §1, §2, §3

[10] = system: Abutilon theophrasti; assay: Post-emergence herbicidal effect; conditions: 320 g/ha, assessed visually after about 3 weeks vs untreated controls
Text: (§4) • ABUTH: Abutilon theophrasti ALOMY: Alopecurus myosuroides • AMARE: Amaranthus retroflexus AVEFA: Avena fatua • CYPES: Cyperus esculentus ECHCG: Echinochloa crus-galli • LOLMU: Lolium multiflorum MATIN: Matricaria inodora • PHBPU: Ipomoea purpurea POLCO: Polygonum convolvulus • SETVI: Setaria viridis STEME: Stellaria media • VERPE: Veronica persica VIOTR: Viola tricolor Seeds of monocotyledonous and dicotyledonous weed and crop plants are laid out in sandy loam in wood-fiber pots, covered with soil and cultivated in a greenhouse under good growth conditions. 2 to 3 weeks after sowing, the test plants are treated at the one-leaf stage. The compounds of the invention, formulated in the form of wettable powders (WP) or as emulsion concentrates (EC), are then sprayed onto the green parts of the plants as aqueous suspension or emulsion at a water application rate equating to 600 to 800 L/ha with addition of 0.2% wetting agent. After the test plants have been left to stand in the greenhouse under optimal growth conditions for about 3 weeks, the action of the preparations is assessed visually in comparison to untreated controls (herbicidal action in percent (%): 100% activity=the plants have died, 0% activity=like control plants).

[11] = system: Amaranthus retroflexus; assay: Post-emergence herbicidal effect; conditions: assessed visually after about 3 weeks vs untreated controls
Text: as §4

[12] = system: Echinochloa crus-galli; assay: Post-emergence herbicidal effect; conditions: 320 g/ha, assessed visually after about 3 weeks vs untreated controls
Text: as §4

[13] = system: Stellaria media; assay: Post-emergence herbicidal effect; conditions: assessed visually after about 3 weeks vs untreated controls
Text: as §4

[14] = system: Veronica persica; assay: Post-emergence herbicidal effect; conditions: 320 g/ha, assessed visually after about 3 weeks vs untreated controls
Text: as §4

[15] = system: Viola tricolor; assay: Post-emergence herbicidal effect; conditions: assessed visually after about 3 weeks vs untreated controls
Text: as §4

[16] = system: Ipomoea purpurea; assay: Post-emergence herbicidal effect; conditions: 320 g/ha, assessed visually after about 3 weeks vs untreated controls
Text: as §4

[17] = system: Lolium multiflorum; assay: Pre-emergence herbicidal effect; conditions: Dosage 320 g/ha, scored visually after 3 weeks
Text: as §1, §2, §3

SMILES | ABUTH pre-emergence efficacy (herbicidal activity) ([1]; Dosage 320 g/ha) [%] | AMARE pre-emergence efficacy (herbicidal activity) ([2]; Dosage 80 g/ha) [%] | AMARE pre-emergence efficacy (herbicidal activity) ([2]; Dosage 320 g/ha) [%] | ECHCG pre-emergence efficacy (herbicidal activity) ([3]; Dosage 80 g/ha) [%] | ECHCG pre-emergence efficacy (herbicidal activity) ([3]; Dosage 320 g/ha) [%] | MATIN pre-emergence efficacy (herbicidal activity) ([4]; Dosage 80 g/ha) [%] | MATIN pre-emergence efficacy (herbicidal activity) ([4]; Dosage 320 g/ha) [%] | POLCO pre-emergence efficacy (herbicidal activity) ([5]; Dosage 80 g/ha) [%] | POLCO pre-emergence efficacy (herbicidal activity) ([5]; Dosage 320 g/ha) [%] | SETVI pre-emergence efficacy (herbicidal activity) ([6]; Dosage 80 g/ha) [%] | SETVI pre-emergence efficacy (herbicidal activity) ([6]; Dosage 320 g/ha) [%] | STEME pre-emergence efficacy (herbicidal activity) ([7]; Dosage 80 g/ha) [%] | STEME pre-emergence efficacy (herbicidal activity) ([7]; Dosage 320 g/ha) [%] | VERPE pre-emergence efficacy (herbicidal activity) ([8]; Dosage 80 g/ha) [%] | VERPE pre-emergence efficacy (herbicidal activity) ([8]; Dosage 320 g/ha) [%] | VIOTR pre-emergence efficacy (herbicidal activity) ([9]; Dosage 80 g/ha) [%] | VIOTR pre-emergence efficacy (herbicidal activity) ([9]; Dosage 320 g/ha) [%] | post-emergence efficacy AMARE ([11]; 320 g/ha) [%] | post-emergence efficacy ECHCG [12] [%] | post-emergence efficacy VIOTR ([15]; 320 g/ha) [%] | further results
Cc1cc2c(s1)CCCC2Nc1nc(N)c(S(C)(=O)=O)c(Cl)n1 (racemic) [compound 16] | 40 | 90 | 100 | 100 | 100 | 100 | 100 | 20 | 40 | 20 | 100 | 100 | 100 | 100 | 100 | 100 | 100 | 90 | 100 | 90 | ABUTH pre-emergence efficacy (herbicidal activity) ([1]; Dosage 80 g/ha): 40%; post-emergence efficacy ABUTH [10]: 90%; post-emergence efficacy STEME ([13]; 320 g/ha): 90%; post-emergence efficacy VERPE [14]: 80%
Cc1cc2c(s1)CCCC2Nc1nc(N)c([S+](C)[O-])c(Cl)n1 (racemic) [compound 39] | 80 |  | 100 | 80 | 100 | 100 | 100 | 80 | 90 | 100 | 100 | 100 | 100 |  | 100 | 100 | 100 |  |  | 80 | post-emergence efficacy PHBPU [16]: 80%; post-emergence efficacy VIOTR ([15]; 80 g/ha): 80%
Nc1nc(NC2CCCc3sccc32)ncc1C(F)(F)F (racemic) [compound 70] |  | 100 | 100 |  | 100 | 100 | 100 |  | 100 | 100 | 100 | 100 | 100 | 90 | 100 | 100 | 100 | 100 | 80 | 100 | LOLMU pre-emergence efficacy (herbicidal activity) [17]: 100%; post-emergence efficacy AMARE ([11]; 80 g/ha): 40%; post-emergence efficacy STEME ([13]; 80 g/ha): 100%; post-emergence efficacy STEME ([13]; 320 g/ha): 100%
